Experimental data published in patent US20200024278A1, “COMPOSITION COMPRISING ANTIBIOTIC COMPOUND AND AN HETEROCYCLIC COMPOUND AND THEIR USE IN PREVENTING OR TREATING BACTERIAL INFECTIONS” (MUTABILIS, priority 2016, published 2020).

Columns and labels:
Test in all cases: MIC, broth microdilution (CLSI), substance alone or ATB combined with compound at 4 or 8 μg/mL
SAU 29213 = format: cell-based, S. aureus; conditions: for MIC ATB combined with compound: compound @4 μg/ml, SAU 29213
Method in brief: (§1)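 Growth inhibition endpoint, read visually after 16-20 h at 35° C in ambient air. Cation-adjusted Mueller-Hinton broth, inoculum 5·10^5 CFU/mL, CLSI M7-A7 protocol.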

ECL P99 = format: cell-based, E. cloacae; conditions: ECL P99; for MIC ATB combined with compound: compound @4 μg/ml
Method in brief: as §1

KPN 6299 = format: cell-based, K. pneumoniae; conditions: compound @4 μg/ml
Method in brief: as §1

KPN BAA-1898 = format: cell-based, K. pneumoniae; conditions: KPN BAA-1898; for MIC ATB combined with compound: compound @4 μg/ml
Method in brief: as §1

KPN UFR42 = format: cell-based, K. pneumoniae; conditions: KPN UFR42; for MIC ATB combined with compound: compound @4 μg/ml
Method in brief: as §1

SPN 49619 = format: cell-based, S. pneumoniae; conditions: SPN 49619; for MIC ATB combined with compound: compound @4 μg/ml
Method in brief: as §1

ECO 190317 = format: cell-based, E. coli; conditions: ECO 190317; for MIC ATB combined with compound: compound @4 μg/ml
Method in brief: as §1

ECO UFR39 = format: cell-based, E. coli; conditions: ECO UFR39; for MIC ATB combined with compound: compound @4 μg/ml
Method in brief: as §1

PAE UFR90 = format: cell-based, P. aeruginosa; conditions: PAE UFR90; for MIC ATB combined with compound: compound @4 μg/ml
Method in brief: as §1

PAE UFR48 = format: cell-based, P. aeruginosa; conditions: PAE UFR48; for MIC ATB combined with compound: compound @4 μg/ml
Method in brief: as §1

PAE 105250 = format: cell-based, P. aeruginosa; conditions: PAE 105250; for MIC ATB combined with compound: compound @4 μg/ml
Method in brief: as §1

**Q.** What does the source list for NC[C@@H]1CC(=NOCC(N)=O)[C@@H]2CN1C(=O)N2OS(=O)(=O)[O-].O=C(O)C(F)(F)F.[Na+] [Example 4, 2,2,2-trifluroacetate and sodium [(2S,5S)-4-(2-amino-2-oxo-ethoxy)imino-2-(azaniumylmethyl)-7-oxo-1,6-diazabicyclo[3.2.1]octan-6-yl] sulfate]?
**A.** MIC ATB combined with compound (SAU 29213; ATB ATM): >32 µg/mL; MIC ATB combined with compound (SAU 29213; ATB FEP): 4 µg/mL; MIC ATB combined with compound (SAU 29213; ATB FOS): 2 µg/mL; MIC ATB combined with compound (SAU 29213; ATB MEM): 0.125 µg/mL; MIC ATB combined with compound (SAU 29213; ATB PIP): 4 µg/mL; MIC (SAU 29213; substance alone, SAU 29213 (MSSA 29213)): >32 µg/mL; MIC ATB combined with compound (ECL P99; ATB ATM): <0.031 µg/mL; MIC ATB combined with compound (ECL P99; ATB FEP): <0.031 µg/mL; MIC ATB combined with compound (ECL P99; ATB FOS): <0.125 µg/mL; MIC ATB combined with compound (ECL P99; ATB MEM): <0.031 µg/mL; MIC ATB combined with compound (ECL P99; ATB PIP): <=0.031 μg/mL; MIC (ECL P99; substance alone): 0.063 µg/mL; MIC ATB combined with compound (KPN 6299; ATB ATM): 0.063 µg/mL; MIC ATB combined with compound (KPN 6299; ATB FEP): 0.125 µg/mL; MIC ATB combined with compound (KPN 6299; ATB FOS): 64 µg/mL; MIC ATB combined with compound (KPN 6299; ATB MEM): 0.25 µg/mL; MIC ATB combined with compound (KPN 6299; ATB PIP): 4 µg/mL; MIC ATB combined with compound (KPN BAA-1898; ATB ATM): 8 µg/mL; MIC ATB combined with compound (KPN BAA-1898; ATB FEP): 0.5 µg/mL; MIC ATB combined with compound (KPN BAA-1898; ATB FOS): 32 µg/mL; MIC ATB combined with compound (KPN BAA-1898; ATB MEM): 0.5 µg/mL; MIC ATB combined with compound (KPN BAA-1898; ATB PIP): >32 µg/mL; MIC (KPN BAA-1898; substance alone): >32 µg/mL; MIC ATB combined with compound (KPN UFR42; ATB ATM): 1 µg/mL; MIC ATB combined with compound (KPN UFR42; ATB FEP): >32 µg/mL; MIC ATB combined with compound (KPN UFR42; ATB FOS): 32 µg/mL; MIC ATB combined with compound (KPN UFR42; ATB MEM): >32 µg/mL; MIC ATB combined with compound (KPN UFR42; ATB PIP): >32 µg/mL; MIC (KPN UFR42; substance alone): >32 µg/mL; MIC ATB combined with compound (SPN 49619; ATB ATM): >32 µg/mL; MIC ATB combined with compound (SPN 49619; ATB FEP): 0.063 µg/mL; MIC ATB combined with compound (SPN 49619; ATB FOS): 32 µg/mL; MIC ATB combined with compound (SPN 49619; ATB MEM): 0.063 µg/mL; MIC ATB combined with compound (SPN 49619; ATB PIP): 0.5 µg/mL; MIC (SPN 49619; substance alone): 32 µg/mL; MIC ATB combined with compound (ECO 190317; ATB ATM): <0.031 µg/mL; MIC ATB combined with compound (ECO 190317; ATB FEP): <0.031 µg/mL; MIC ATB combined with compound (ECO 190317; ATB FOS): <0.125 µg/mL; MIC ATB combined with compound (ECO 190317; ATB MEM): <0.031 µg/mL; MIC ATB combined with compound (ECO 190317; ATB PIP): <0.031 µg/mL; MIC (ECO 190317; substance alone): 0.25 µg/mL; MIC ATB combined with compound (ECO UFR39; ATB ATM): <0.031 µg/mL; MIC ATB combined with compound (ECO UFR39; ATB FEP): <0.031 µg/mL; MIC ATB combined with compound (ECO UFR39; ATB FOS): <0.125 µg/mL; MIC ATB combined with compound (ECO UFR39; ATB MEM): <0.031 µg/mL; MIC ATB combined with compound (ECO UFR39; ATB PIP): 0.063 µg/mL; MIC (ECO UFR39; substance alone): 0.25 µg/mL; MIC ATB combined with compound (PAE UFR90; ATB ATM): <0.031 µg/mL; MIC ATB combined with compound (PAE UFR90; ATB FEP): <0.031 µg/mL; MIC ATB combined with compound (PAE UFR90; ATB FOS): <0.125 µg/mL; MIC ATB combined with compound (PAE UFR90; ATB MEM): <0.031 µg/mL; MIC ATB combined with compound (PAE UFR90; ATB PIP): <0.031 µg/mL; MIC (PAE UFR90; substance alone): 2 µg/mL; MIC ATB combined with compound (PAE UFR48; ATB ATM): <0.031 µg/mL; MIC ATB combined with compound (PAE UFR48; ATB FEP): <0.031 µg/mL; MIC ATB combined with compound (PAE UFR48; ATB FOS): <0.125 µg/mL; MIC ATB combined with compound (PAE UFR48; ATB MEM): <0.031 µg/mL; MIC ATB combined with compound (PAE UFR48; ATB PIP): <0.031 µg/mL; MIC (PAE UFR48; substance alone): 4 µg/mL; MIC ATB combined with compound (PAE 105250; ATB ATM): <0.031 µg/mL; MIC ATB combined with compound (PAE 105250; ATB FEP): <=0.031 μg/mL; MIC ATB combined with compound (PAE 105250; ATB FOS): 8 µg/mL; MIC ATB combined with compound (PAE 105250; ATB MEM): <0.031 µg/mL; MIC ATB combined with compound (PAE 105250; ATB PIP): <=0.031 μg/mL; MIC (PAE 105250; substance alone): 32 µg/mL
